Laboratory results from patent publication US20080138299A1, “Oral Pharmaceuticals or Oral Hygiene Products Comprising Licorice Flavonoid Extract” (Hawley & Hazel (BVI) Company Limited, priority 2006, published 2008).

Tests used:
GM-CSF = assay: KB cell Luminex liquid-phase chip analysis; assay type: cell-based, human; details: KB cell supernatant, higher = stronger, test concentration not given
Experimental: (§1) During the experiment, the KB cell inoculated in the cultivating plate is treated with or without (control) Licochalone A. After the treatment, the supernatant of the cultivated liquid is collected and stored in −80 C refrigerator. The PGE2 in the supernatant is detected by Enzyme-linked immunsorbent assay, and Luminex multifunctional liquid-phase chip analysis system is used for the detection of GM-CSF, TNF-α, IL-1β and IL-6 (the result is shown in Table 3).
(§2) The 96-well plate is enclosed for 30 min. The fluorescent microspheres are added into the 96-well plate after dilution. Add the standard sample and the sample to be measured, stay overnight at 4° C. In the next day, the supernatant is discarded, and 50 μl GM-CSF, TNF-α, IL-1β and IL-6 antibodies are added to each hole. After rinsing 4 times, the 96-well plate is placed in a shaking table under ambient temperature to shade from light for 1 h, rinse 4 times, and add PE labeled with streptavidin and shade from light for 15 min at room temperature. Rinse 4 times, the microspheres are suspended in the rinsing buffer, and the 96-well plate is immediately placed on Luminex (Luminex Corporation, Austin, Tx.) to analyze.

IL-1β = assay: KB cell Luminex liquid-phase chip analysis; assay type: cell-based, human; details: KB cell supernatant, higher = stronger, test concentration not given
Experimental: as §1, §2

TNF-α = assay: KB cell Luminex liquid-phase chip analysis; assay type: cell-based, human; details: KB cell supernatant, higher = stronger, test concentration not given
Experimental: as §1, §2

IL-6 = assay: KB cell Luminex liquid-phase chip analysis; assay type: cell-based, human; details: KB cell supernatant, higher = stronger, test concentration not given
Experimental: as §1, §2

[1] = tested on: Actinobacillus actinomycetemcomitans (A. a) ATCC 43717; assay: Broth micro-dilution MIC; assay type: cell-based; details: no unit in table; dilution series 250-0.12 mg/L, ceiling 250 ppm; 37 °C, 18-24 h; smaller = stronger
Text: (§3) 3. The Inhibition Experiment of Licochalone A and Total Flavonoid Extracts of Zhangguo Licorice (Glycyrrhiza inflate Betal) on Primary Oral Pathogenic Microorganisms 3.1 The Cultivation of the Bacteria Species: Streptococcus mutans (ATCC 25175), Actinomyces naeslundii (ATCC 12104), Actinobacillus actinomycetemicomtans (ATCC 43717), Porphyromonas gingivalis (ATCC 33277), Listed as Following:
(§4) A single colony is picked from the Trypticase Digested Soybean peptone agar blood plate (TSA5B) ordinarily stored bacteria species to Trypticase Digested Soybean peptone broth (TSB), cultivated in microaerobic environment (only P.g needs anaerobic cultivation) with 95% air, 5% CO2 at 37.0° C.±1.0° C., wherein S.m is cultivated for 18-24 h, and the remaining three are cultivated for 40-48 h. Then sterile TSB is used to adjust the turbidity of the bacteria suspension to 0.5^#McFarland standard, equivalent to 1.0×10^8 CFU/mL.
(§5) After performing a series of 2-fold dilutions to the anti-bacteria pharmaceuticals, rationally inoculate with tested bacteria, and observe after incubated at 37° C. for 18-24 h, wherein the lowest pharmaceutical concentration that inhibits the growth visible to the naked eye of the tested bacteria is the minimum inhibitive concentration (MIC) of the tested pharmaceuticals to the tested bacteria. The operating steps are:
(§6) a. Preparation of the stock solution of antibacterial pharmaceutical: Prepare 1% stock solution of various antibacterial pharmaceuticals dope with 100% pure ethanol as solvent. The prepared stock solution is filtered to eliminate bacteria, and is distributed into small portions to be used. b. Range of measured concentration: the present experiment chooses 250 ppm as the ceiling measured concentration of the anti-bacteria pharmaceutical. c. Measuring method: micro-dilution method.
(§7) First add 100 μL TSB to each hole of the 96-well plate, and add 100 μL sterile anti-bacteria pharmaceutical solution which is diluted 10-folds (1000 mg/l) to each hole of the first column, then blow on each hole of the first column repeatedly for 7-8 times using multi-channel micropipet, transfer 100 μL sample to the second column after sufficiently mixing the pharmaceutical with TSB, and after similarly blowing for 7-8 times, transfer 100 μL sample to the third column, and analogously to the last column, thus the concentration of pharmaceutical is 2-fold gradiently diluted, from 500 mg/L of the first column to 0.24 mg/L of the last column (the 12th column).
(§8) The bacteria to be tested and standard bacteria are prepared as above. Dilute the bacteria solution with TSB to a bacteria content of about 10^6 CFU/mL. Then inoculate 100 μL for each hole. Thus the final diluted concentration of the anti-bacteria pharmaceutical in each line are 250, 125, 62.5 . . . 0.12 mg/L, and the final inoculation quantity is about […] or 5×10^6 bacteria each hole; the 96-well plate is placed on a microshaker and is shook for 1 min to mix the solution in each hole. The microwell plate is covered and is sealed with adhesive paper to reduce the evaporation during the incubation process and is placed in a humid box, cultivated in microaerobic environment with 95% air, 5% CO2 (or in anaerobic environment with 90% N2, 5% H2, 5% CO2) at 37.0° C.±1.0° C. for 18-24 h. The 96-well plate is placed under an enzyme-labeling instrument, and by comparing the growing characteristics of the tested bacteria with the standard bacteria, the lowest anti-bacteria pharmaceutical concentration contained in the hole without bacteria is taken as MIC.

[2] = tested on: Streptococcus mutans (S. m) ATCC 25175; assay: Broth micro-dilution MIC; assay type: cell-based; details: no unit in table; dilution series 250-0.12 mg/L, ceiling 250 ppm; 37 °C, 18-24 h; smaller = stronger
Text: as §3, §4, §5, §6, §7, §8

[3] = tested on: Actinomyces naeslundii (A. n) ATCC 12104; assay: Broth micro-dilution MIC; assay type: cell-based; details: no unit in table; dilution series 250-0.12 mg/L, ceiling 250 ppm; 37 °C, 18-24 h; smaller = stronger
Text: as §3, §4, §5, §6, §7, §8

[4] = tested on: Porphyromonas gingivalis (P. g) ATCC 33277; assay: Broth micro-dilution MIC; assay type: cell-based; details: no unit in table; dilution series 250-0.12 mg/L, ceiling 250 ppm; anaerobic, 37 °C, 18-24 h; smaller = stronger
Text: as §3, §4, §5, §6, §7, §8

C=CC(C)(C)c1cc(/C=C/C(=O)c2ccc(O)cc2)c(OC)cc1O [Licochalone A, 5-(1,1-Dimethylallyl)-4,4′-dihydroxy-2-methoxychalcone]
GM-CSF (anti-inflammatory ability) (GM-CSF): 8%
IL-1β (interleukin) (anti-inflammatory ability) (IL-1β): 19%
TNF-α (Tumor Necrosis Factor) (anti-inflammatory ability) (TNF-α): 95%
IL-6 (interleukin) (anti-inflammatory ability) (IL-6): 50%
minimum inhibitive concentration (MIC), A. a [1]: >250
minimum inhibitive concentration (MIC), S. m [2]: 7.8
minimum inhibitive concentration (MIC), A. n [3]: 7.8
minimum inhibitive concentration (MIC), P. g [4]: 1.9

Oc1cc(Cl)ccc1Oc1ccc(Cl)cc1Cl [Triclosan]
GM-CSF (anti-inflammatory ability) (GM-CSF): 5%
IL-1β (interleukin) (anti-inflammatory ability) (IL-1β): 7%
TNF-α (Tumor Necrosis Factor) (anti-inflammatory ability) (TNF-α): 81%
IL-6 (interleukin) (anti-inflammatory ability) (IL-6): 31%
minimum inhibitive concentration (MIC), A. a [1]: 1.9
minimum inhibitive concentration (MIC), S. m [2]: 3.9
minimum inhibitive concentration (MIC), A. n [3]: 3.9
minimum inhibitive concentration (MIC), P. g [4]: 7.8
